Test system: ABCA-1 gene
Assay: compounds tested and found to elevate cellular expression of the ABCA-1 gene (Examples 1-6; test not named)
Type: cell-based
Protocol: Activity testing is conducted as described in those patents and patent applications referenced above, and in the Examples below, and by methods apparent to one skilled in the art.

Compound | cellular expression of the ABCA-1 gene
2-[(4-methylethylphenyl)carbonylamino]-1,3-thiazoline-4-carboxylic acid | elevate cellular expression of the ABCA-1 gene
2-[({2-[4-(6-chlorobenzothiazol-2-yl)piperazinyl]ethyl}oxycarbonyl)methylthio]acetic acid | elevate cellular expression of the ABCA-1 gene
6-(2-aminophenyl)-3-(methylethylthio)-2H-1,2,4-triazin-5-one | elevate cellular expression of the ABCA-1 gene
CCc1cc(OC(=O)c2ccco2)n(-c2cccc(Cl)c2)n1 [1-(3-chlorophenyl)-3-ethylpyrazol-5-yl furan-2-carboxylate] | elevate cellular expression of the ABCA-1 gene
CCCc1c(C(=O)N2CCN(C(=O)C(CC)c3ccccc3)C(C)C2)cnn1-c1nc(-c2cccc(OC)c2)cs1 (centres unmarked) [1-(4-{1-[4-(3-methoxy-phenyl)-thiazol-2-yl]-5-propyl-1H-pyrazole-4-carbonyl}-2-methyl-piperazin-1-yl)-2-phenyl-butan-1-one] | elevate cellular expression of the ABCA-1 gene
CCc1c(C(=O)N2CCN(C(=O)C(c3ccccc3)c3ccccc3)C(C)C2)cnn1-c1nc(-c2ccc(Cl)cc2)cs1 (centres unmarked) [1-(4-{1-[4-(4-chloro-phenyl)-thiazol-2-yl]-5-ethyl-1H-pyrazole-4-carbonyl}-2-methyl-piperazin-1-yl)-2,2-diphenyl-ethanone] | elevate cellular expression of the ABCA-1 gene
CCc1c(C(=O)N2CCN(C(=O)C(CC)c3ccccc3)C(C)C2)cnn1-c1nc(-c2ccc(Cl)cc2)cs1 (centres unmarked) [1-(4-{1-[4-(4-chloro-phenyl)-thiazol-2-yl]-5-ethyl-1H-pyrazole-4-carbonyl}-2-methyl-piperazin-1-yl)-2-phenyl-butan-1-one] | elevate cellular expression of the ABCA-1 gene
CCc1c(C(=O)N2CCN(C(=O)C(c3ccccc3)c3ccccc3)C(C)C2)cnn1-c1nc(-c2ccc(OC)cc2)cs1 (centres unmarked) [1-(4-{5-ethyl-1-[4-(4-methoxy-phenyl)-thiazol-2-yl]-1H-pyrazole-4-carbonyl}-2-methyl-piprazin-1-yl)-2,2-diphenyl-ethanone] | elevate cellular expression of the ABCA-1 gene
CCc1c(C(=O)N2CCN(C(=O)C(C)C)C(C)C2)cnn1-c1nc(-c2ccc(OC)cc2)cs1 (centres unmarked) [1-(4-{5-ethyl-1-[4-(4-methoxy-phenyl)-thiazol-2-yl]-1H-pyrazole-4-carbonyl}-2-metyl-piperazin-1-yl)-2-methyl-propan-1-one] | elevate cellular expression of the ABCA-1 gene
CCCCCCCC(=O)N1CCC2(CC1)OCCO2 [1-(8-aza-1,4-dioxaspiro[4.5]dec-8-yl)octan-1-one] | elevate cellular expression of the ABCA-1 gene
O=[N+]([O-])c1ccc(OCCOc2ccc([N+](=O)[O-])cc2)cc1 [1-nitro-4-[2-(4-nitrophenoxy)ethoxy]benzene] | elevate cellular expression of the ABCA-1 gene
COc1ccccc1NC(=O)N(CCc1ccccc1)C(C)c1nc2ccccc2c(=O)n1-c1ccc(Br)cc1 (centres unmarked) [1-{1-[3-(4-bromophenyl)-4-oxo-3,4-dihydro-quinazolin-2-yl]-ethyl}-3-(2-methoxy-phenyl-1-phenethylurea] | elevate cellular expression of the ABCA-1 gene
COc1ccc(-c2nc3cc(/N=C/c4cccc([N+](=O)[O-])c4)ccc3o2)cc1 [1-{5-[(1E)-1-aza-2-(3-nitrophenyl)vinyl]benzoxazol-2-yl}-4-methoxybenzene] | elevate cellular expression of the ABCA-1 gene
C1=C(c2ccccc2)Nc2nc3ccccc3n2C1c1ccccc1 (centres unmarked) [2,4-diphenyl-1,4,5-trihydropyrimidino[1,2-a]benzimidazole] | elevate cellular expression of the ABCA-1 gene
Nc1cc(C(F)(F)F)ccc1N1CCc2ccccc2C1 [2-(2-1,2,3,4-tetrahydroisoquinolyl)-5-(trifluoromethyl)phenylamine] | elevate cellular expression of the ABCA-1 gene
O=C(NC1=NC(C(=O)O)CS1)c1ccc2c(c1)OCO2 (centres unmarked) [2-(2H-benzo[3,4-d]1,3-dioxolan-5-ylcarbonylamino)-1,3-thiazoline-4-carboxylic acid] | elevate cellular expression of the ABCA-1 gene
Nc1nc(-c2ccc(Cl)cc2)nc2sc3c(c12)CCCCC3 [2-(4-chlorophenyl)-5,6,7,8,9-pentahydrocyclohepta[1,2-b]pyrimidino[5,4-d]thiophene-4-ylamine] | elevate cellular expression of the ABCA-1 gene
Nc1ccccc1-c1nc(-c2ccc(Cl)cc2)no1 [2-[3-(4-chlorophenyl)-1,2,4-oxadiazol-5-yl]phenylamine] | elevate cellular expression of the ABCA-1 gene
CC(C)(C)c1ccc(-c2nc3cccc(F)c3c(=O)o2)cc1 [2-[4-(tert-butyl)phenyl]-5-fluorobenzo[d]1,3-oxazin-4-one] | elevate cellular expression of the ABCA-1 gene
COc1ccc(/C=C/c2nc3ccccc3c(=O)[nH]2)cc1OC [2-[(1E)-2-(3,4-dimethoxyphenyl)vinyl]-3-hydroquinazolin-4-one] | elevate cellular expression of the ABCA-1 gene
O=c1oc(/C=C/c2ccc(Cl)cc2)nc2ccccc12 [2-[(1E)-2-(4-chlorophenyl)vinyl]benzo[d]1,3-oxazin-4-one] | elevate cellular expression of the ABCA-1 gene

Compound | cellular expression of the ABCA-1 gene
O=C(NC1=NC(C(=O)O)CS1)c1ccccc1C(F)(F)F (centres unmarked) [2-[(2-trifluoromethylphenyl)carbonylamino]-1,3-thiazoline-4-carboxylic acid] | elevate cellular expression of the ABCA-1 gene
COc1cc(C(=O)NC2=NC(C(=O)O)CS2)cc(OC)c1OC (centres unmarked) [2-[(3,4,5-trimethoxyphenyl)carbonylamino]-1,3-thiazoline-4-carboxylic acid] | elevate cellular expression of the ABCA-1 gene
O=C(NC1=NC(C(=O)O)CS1)c1ccc(Cl)c(Cl)c1 (centres unmarked) [2-[(3,4-dichlorophenyl)carbonylamino]-1,3-thiazoline-4-carboxylic acid] | elevate cellular expression of the ABCA-1 gene
O=C(NC1=NC(C(=O)O)CS1)c1cc(C(F)(F)F)cc(C(F)(F)F)c1 (centres unmarked) [2-[(3,5-bistrifluoromethylphenyl)carbonylamino]-1,3-thiazoline-4-carboxylic acid] | elevate cellular expression of the ABCA-1 gene
COc1cccc(C(=O)NC2=NC(C(=O)O)CS2)c1 (centres unmarked) [2-[(3-methoxyphenyl)carbonylamino]-1,3-thiazoline-4-carboxylic acid] | elevate cellular expression of the ABCA-1 gene
COc1ccc(C(=O)NC2=NC(C(=O)O)CS2)cc1 (centres unmarked) [2-[(4-methoxyphenyl)carbonylamino]-1,3-thiazoline-4-carboxylic acid] | elevate cellular expression of the ABCA-1 gene
Cc1ccc(C(=O)NC2=NC(C(=O)O)CS2)cc1 (centres unmarked) [2-[(4-methylphenyl)carbonylamino]-1,3-thiazoline-4-carboxylic acid] | elevate cellular expression of the ABCA-1 gene
Cc1ccc2nc(-c3ccc(NC(=O)c4ccco4)cc3)sc2c1 [2-furyl-N-[4-(6-methylbenzothiazol-2-yl)phenyl]carboxamide] | elevate cellular expression of the ABCA-1 gene
CS(=O)(=O)c1ccc2nc(NC(=O)c3ccco3)sc2c1 [2-furyl-N-[6-(methylsulfonyl)benzothiazol-2-yl]carboxamide] | elevate cellular expression of the ABCA-1 gene
O=C(Nc1ccc2c(c1)CCC2)c1ccco1 [2-furyl-N-indan-5-ylcarboxamide] | elevate cellular expression of the ABCA-1 gene
Cc1c(Nc2nc(-c3ccc4ccccc4c3)cs2)cccc1C(=O)O [2-methyl-3-[(4-(2-naphthyl)(1,3-thiazol-2-yl))amino]benzoic acid] | elevate cellular expression of the ABCA-1 gene
O=C(NCCc1ccccc1)c1ccc2ccccc2c1 [2-naphthyl-N-(2-phenylethyl)carboxamide] | elevate cellular expression of the ABCA-1 gene
O=C(Nc1ncc(-c2ccccc2)s1)c1ccc2ccccc2c1 [2-naphthyl-N-(5-phenyl(1,3-thiazol-2-yl))carboxamide] | elevate cellular expression of the ABCA-1 gene
O=C(Nc1nccs1)c1ccccc1C(F)(F)F [2-trifluoromethylphenyl-N-(1,3-thiazol-2-yl)carboxamide] | elevate cellular expression of the ABCA-1 gene
CC(C)(C)c1ccc(C(=O)NC2=NC(C(=O)O)CS2)cc1 (centres unmarked) [2-{[4-(tert-butyl)phenyl]carbonylamino}-1,3-thiazoline-4-carboxylic acid] | elevate cellular expression of the ABCA-1 gene
O=C(Nc1cccc(Cl)c1)Nc1ccccc1C(=O)O [2-{[N-(3-chlorophenyl)carbamoyl]amino}benzoic acid] | elevate cellular expression of the ABCA-1 gene
O=C(Nc1ccc(Cl)cc1)Nc1ccccc1C(=O)O [2-{[N-(4-chlorophenyl)carbamoyl]amino}benzoic acid] | elevate cellular expression of the ABCA-1 gene
O=C(NC1=NCCS1)c1ccc2c(c1)OCO2 [2H-benzo[3,4-d]1,3-dioxolan-5-yl-N-(1,3-thiazolin-2-yl)carboxamide] | elevate cellular expression of the ABCA-1 gene
CCn1c2ccccc2c2cc(CN(CCc3ccccc3)C(=O)c3ccc4c(c3)OCO4)ccc21 [2H-benzo[d]1,3-dioxolen-5-yl-N-[(9-ethylcarbazol-3-yl)methyl]-N-(2-phenylethyl)carboxamide] | elevate cellular expression of the ABCA-1 gene
CCCn1c(C(CC)N(Cc2ccccc2)C(=O)CC(C)CC(C)(C)C)nc2ccccc2c1=O (centres unmarked) [3,5,5-trimethylhexanoic acid benzyl-[1-(4-oxo-3-propyl-3,4-dihydro-quinazolin-2-yl)propyl]-amide] | elevate cellular expression of the ABCA-1 gene

From US6900219B2, “ABCA-1 elevating compounds” (CV Therapeutics, Inc., priority 2002, dated 2005)
